Reference: patent publication US20240050409A1, “Methods and Compositions for Treating Psychotic Disorders” (SOUND PHARMACEUTICALS INCORPORATED, priority 2014, published 2024)
“Also recorded” adds a separate entry of the source.

System: PV immunoreactive interneurons (PVI) in the PFC of NVHL rats
Experiment: PV interneuron counts (stereology) in PFC of NVHL rats
Format: in vivo, Sprague-Dawley rats
Details: adult (P61) NVHL rats; drinking water 900 mg/l, P5 to P50
Experimental: This example describes reversal of prepulse inhibition through treatment of ebselen. One of the most replicated findings in schizophrenia research is a reduction of markers associated with cortical inhibitory interneurons (Lewis et al., 2012). […] Whether parvalbumin (PV) positive interneurons in the PFC, including the dorsal prelimbic and anterior cingulate cortex (ACC), are altered in NVHL rats using unbiased stereological counting techniques was assessed. Between postnatal day (P) 21 and P61, the number of PV immunoreactive interneurons (PVI) increased in sham-operated rats, but not in NVHL rats as illustrated in FIGS. 7A and 1B.
Animals: Timed-pregnant Sprague-Dawley rats were obtained at gestational days 13-15 from Charles River (Wilmington, MA) and were individually housed with free access to food and water in a temperature- and humidity-controlled environment with a 12:12h light/dark cycle (lights on at 7:00 AM). When pups reached P5, half of the dams received NAC in their drinking water. Pups were left undisturbed until P7-9 when healthy offspring were randomly separated and received either NVHL or sham surgery. At P21, male and female pups were either transcardially perfused with 4% paraformaldehyde for immunocytochemistry or weaned and housed in groups of two to three, counterbalanced across lesion status. NAC treatment lasted throughout adolescence until P50. […]

**Q.** With `CC(=O)N[C@@H](CS)C(=O)O` [NAC, N-acetyl cysteine] as the compound, how does the “effect on PVI count reduction in PFC” value read?
**A.** Its value is “prevented; also recorded: rescued”.
